ChEMBL document CHEMBL2434896, “Carbonic anhydrase inhibitors. Synthesis of heterocyclic 4-substituted pyridine-3-sulfonamide derivatives and their inhibition of the human cytosolic isozymes I and II and transmembrane tumor-associated isozymes IX and XII” (Eur J Med Chem, 2013)
Activity calls are given as the source filed them. The calls are words filed in the database; no cut-off is given here.

What was measured:
[1] = tested on: SK-MEL-28; assay: Growth inhibition of human SK-MEL-28 cells at 10 uM after 48 hrs by sulforhodamine B assay; type: functional, cell-based
[2] = tested on: UO-31; assay: Growth inhibition of human UO31 cells at 10 uM after 48 hrs by sulforhodamine B assay; type: functional; details: UO-31, 48 h, read-out: GI
[3] = tested on: NCI-H322M; assay: Growth inhibition of human NCI-H322M cells at 10 uM after 48 hrs by sulforhodamine B assay; type: functional; details: read-out: GI
[4] = tested on: RPMI-8226; assay: Growth inhibition of human RPMI8226 cells at 10 uM after 48 hrs by sulforhodamine B assay; type: functional; details: RPMI-8226, 48 h, read-out: GI
[5] = tested on: SK-MEL-2; assay: Growth inhibition of human SK-MEL-2 cells at 10 uM after 48 hrs by sulforhodamine B assay; type: functional
[6] = tested on: DU-145; assay: Growth inhibition of human DU145 cells at 10 uM after 48 hrs by sulforhodamine B assay; type: functional
[7] = tested on: HOP-62; assay: Growth inhibition of human HOP62 cells at 10 uM after 48 hrs by sulforhodamine B assay; type: functional
[8] = tested on: Hs-578T; assay: Growth inhibition of human Hs 578T cells at 10 uM after 48 hrs by sulforhodamine B assay; type: functional
[9] = tested on: NCI-H23; assay: Growth inhibition of human NCI-H23 cells at 10 uM after 48 hrs by sulforhodamine B assay; type: functional; details: NCI-H23, 48 h, read-out: GI
[10] = tested on: Malme-3M; assay: Growth inhibition of human MALME-3M cells at 10 uM after 48 hrs by sulforhodamine B assay; type: functional
[11] = tested on: SF-268; assay: Growth inhibition of human SF268 cells at 10 uM after 48 hrs by sulforhodamine B assay; type: functional
[12] = tested on: SK-MEL-5; assay: Growth inhibition of human SK-MEL-5 cells at 10 uM after 48 hrs by sulforhodamine B assay; type: functional; details: SK-MEL-5, 48 h, read-out: GI
[13] = tested on: SNB-19; assay: Growth inhibition of human SNB19 cells at 10 uM after 48 hrs by sulforhodamine B assay; type: functional
[14] = tested on: MDA-MB-231; assay: Growth inhibition of human MDA-MB-231 cells at 10 uM after 48 hrs by sulforhodamine B assay; type: functional; details: MDA-MB-231, 48 h, read-out: GI
[15] = tested on: 786-0; assay: Growth inhibition of human 786-0 cells at 10 uM after 48 hrs by sulforhodamine B assay; type: functional
[16] = tested on: MOLT-4; assay: Growth inhibition of human MOLT4 cells at 10 uM after 48 hrs by sulforhodamine B assay; type: functional; details: MOLT-4, 48 h, read-out: GI
[17] = tested on: LOX IMVI; assay: Growth inhibition of human LOXIMVI cells at 10 uM after 48 hrs by sulforhodamine B assay; type: functional; details: read-out: GI
[18] = tested on: HT-29; assay: Growth inhibition of human HT-29 cells at 10 uM after 48 hrs by sulforhodamine B assay; type: functional; details: HT-29, 48 h, read-out: GI
[19] = tested on: RXF 393; assay: Growth inhibition of human RXF393 cells at 10 uM after 48 hrs by sulforhodamine B assay; type: functional
[20] = tested on: NCI-H460; assay: Growth inhibition of human NCI-H460 cells at 10 uM after 48 hrs by sulforhodamine B assay; type: functional
[21] = tested on: TK-10; assay: Growth inhibition of human TK10 cells at 10 uM after 48 hrs by sulforhodamine B assay; type: functional
[22] = tested on: BT-549; assay: Growth inhibition of human BT549 cells at 10 uM after 48 hrs by sulforhodamine B assay; type: functional
[23] = tested on: HCT-15; assay: Growth inhibition of human HCT15 cells at 10 uM after 48 hrs by sulforhodamine B assay; type: functional; details: HCT-15, 48 h, read-out: GI
[24] = tested on: ACHN; assay: Growth inhibition of human ACHN cells at 10 uM after 48 hrs by sulforhodamine B assay; type: functional; details: read-out: GI
[25] = tested on: OVCAR-4; assay: Growth inhibition of human OVCAR4 cells at 10 uM after 48 hrs by sulforhodamine B assay; type: functional; details: OVCAR-4, 48 h, read-out: GI
[26] = tested on: MDA-MB-468; assay: Growth inhibition of human MDA-MB-468 cells at 10 uM after 48 hrs by sulforhodamine B assay; type: functional; details: MDA-MB-468, 48 h, read-out: GI
[27] = tested on: T47D; assay: Growth inhibition of human T47D cells at 10 uM after 48 hrs by sulforhodamine B assay; type: functional; details: read-out: GI
[28] = tested on: NCI/ADR-RES; assay: Growth inhibition of human NCI-ADR-RES cells at 10 uM after 48 hrs by sulforhodamine B assay; type: functional
[29] = tested on: SR; assay: Growth inhibition of human SR cells at 10 uM after 48 hrs by sulforhodamine B assay; type: functional; details: read-out: GI
[30] = tested on: CCRF-CEM; assay: Growth inhibition of human CCRF-CEM cells at 10 uM after 48 hrs by sulforhodamine B assay; type: functional; details: read-out: GI
[31] = tested on: K562; assay: Growth inhibition of human K562 cells at 10 uM after 48 hrs by sulforhodamine B assay; type: functional; details: K562, 48 h, read-out: GI
[32] = tested on: M14; assay: Growth inhibition of human M14 cells at 10 uM after 48 hrs by sulforhodamine B assay; type: functional; details: M14, 48 h, read-out: GI
[33] = tested on: SN12C; assay: Growth inhibition of human SN12C cells at 10 uM after 48 hrs by sulforhodamine B assay; type: functional; details: read-out: GI
[34] = tested on: SK-OV-3; assay: Growth inhibition of human SKOV3 cells at 10 uM after 48 hrs by sulforhodamine B assay; type: functional
[35] = tested on: SW-620; assay: Growth inhibition of human SW620 cells at 10 uM after 48 hrs by sulforhodamine B assay; type: functional
[36] = tested on: SF-295; assay: Growth inhibition of human SF295 cells at 10 uM after 48 hrs by sulforhodamine B assay; type: functional; details: SF-295, 48 h, read-out: GI
[37] = tested on: PC-3; assay: Growth inhibition of human PC3 cells at 10 uM after 48 hrs by sulforhodamine B assay; type: functional; details: PC-3, 48 h, read-out: GI
[38] = tested on: UACC-62; assay: Growth inhibition of human UACC62 cells at 10 uM after 48 hrs by sulforhodamine B assay; type: functional; details: UACC-62, 48 h, read-out: GI
[39] = tested on: COLO 205; assay: Growth inhibition of human COLO205 cells at 10 uM after 48 hrs by sulforhodamine B assay; type: functional
[40] = tested on: NCI-H522; assay: Growth inhibition of human NCI-H522 cells at 10 uM after 48 hrs by sulforhodamine B assay; type: functional; details: NCI-H522, 48 h, read-out: GI
[41] = tested on: OVCAR-5; assay: Growth inhibition of human OVCAR5 cells at 10 uM after 48 hrs by sulforhodamine B assay; type: functional
[42] = tested on: HCC 2998; assay: Growth inhibition of human HCC2998 cells at 10 uM after 48 hrs by sulforhodamine B assay; type: functional
[43] = tested on: HCT-116; assay: Growth inhibition of human HCT116 cells at 10 uM after 48 hrs by sulforhodamine B assay; type: functional; details: HCT-116, 48 h, read-out: GI

Q: How did the “growth inhibition (GI)” value [1] turn out when NS(=O)(=O)c1cnccc1N1CCN(c2ccc(Cl)cc2)CC1 was run?
A: inactive

Q: What about the inhibition of growth at 10 µM [2] of the same compound?
A: 20%

Q: And the inhibition of growth at 10 µM [3]?
A: 11%

Q: And the inhibition of growth at 10 µM [4]?
A: 25%

Q: And the “growth inhibition (GI)” value [5]?
A: inactive

Q: And the “growth inhibition (GI)” value [6]?
A: inactive

Q: What about the “growth inhibition (GI)” value [7] of the same compound?
A: inactive

Q: What about the “growth inhibition (GI)” value [8] of the same compound?
A: inactive

Q: What about the inhibition of growth at 10 µM [9] of the same compound?
A: 7%

Q: And the “growth inhibition (GI)” value [10]?
A: inactive

Q: And the “growth inhibition (GI)” value [11]?
A: inactive

Q: What about the inhibition of growth at 10 µM [12] of the same compound?
A: 28%

Q: And the “growth inhibition (GI)” value [13]?
A: inactive

Q: What about the inhibition of growth at 10 µM [14] of the same compound?
A: 7%

Q: What about the “growth inhibition (GI)” value [15] of the same compound?
A: inactive

Q: And the inhibition of growth at 10 µM [16]?
A: 25%

Q: And the inhibition of growth at 10 µM [17]?
A: 4%

Q: What about the inhibition of growth at 10 µM [18] of the same compound?
A: 7%

Q: And the “growth inhibition (GI)” value [19]?
A: inactive

Q: And the “growth inhibition (GI)” value [20]?
A: inactive

Q: What about the “growth inhibition (GI)” value [21] of the same compound?
A: inactive

Q: What about the “growth inhibition (GI)” value [22] of the same compound?
A: inactive

Q: And the inhibition of growth at 10 µM [23]?
A: 5%

Q: And the inhibition of growth at 10 µM [24]?
A: 6%

Q: What about the inhibition of growth at 10 µM [25] of the same compound?
A: 28%

Q: What about the inhibition of growth at 10 µM [26] of the same compound?
A: 31%

Q: What about the inhibition of growth at 10 µM [27] of the same compound?
A: 32%

Q: What about the “growth inhibition (GI)” value [28] of the same compound?
A: inactive

Q: What about the inhibition of growth at 10 µM [29] of the same compound?
A: 11%

Q: And the inhibition of growth at 10 µM [30]?
A: 17%

Q: What about the inhibition of growth at 10 µM [31] of the same compound?
A: 28%

Q: What about the inhibition of growth at 10 µM [32] of the same compound?
A: 1%

Q: What about the inhibition of growth at 10 µM [33] of the same compound?
A: 5%

Q: And the “growth inhibition (GI)” value [34]?
A: inactive

Q: And the “growth inhibition (GI)” value [35]?
A: inactive

Q: And the inhibition of growth at 10 µM [36]?
A: 14%

Q: And the inhibition of growth at 10 µM [37]?
A: 8%

Q: What about the inhibition of growth at 10 µM [38] of the same compound?
A: 16%

Q: And the “growth inhibition (GI)” value [39]?
A: inactive

Q: And the inhibition of growth at 10 µM [40]?
A: 8%

Q: What about the “growth inhibition (GI)” value [41] of the same compound?
A: inactive

Q: What about the “growth inhibition (GI)” value [42] of the same compound?
A: inactive

Q: What about the inhibition of growth at 10 µM [43] of the same compound?
A: 5%
